From patent publication US20090162848A1, “Noxin, a novel stress-induced gene involved in cell cycle and apoptosis” (COLD SPRING HARBOR LABORATORY, priority 2007, published 2009)

B1: noxin: noxin tagged with the FLAG epitope at its N-terminus, expressed from plasmid pFLAG-noxin (mouse, SEQ ID NO: 2) (protein)
chain: MNKRRKFLFASVLAVQNSNFIYPSCQRCFSKIILESKRFTCPKCGSSGDTGSTNYRYKLSLKVAESSKLFFITVFGSCLDTFFGLTATGLHRYLEDSIKNLETLDSGRTQSLLTTAVEKCFVGQSFVFGVTNFGDVCGHDSDSSNFQQPCCKHRGEVRTLVASQIILPSPHVKGFTVIAYLHPLLHKKPHCGSQEHSSQSLTSDDSDSDLNNIQGSGNTSWFSESSVGEDFFRYWEPSLELTSSDSQVTSSDDFPASKQIMASGTPNQNRHCISVSEVTSSKNCHDSLQSLWSLHSCMDKNNTTGKLGEELGLPSPVCNSCHESRLSDSHFFPSQMQEPFEEHNLECYSKAEKNDYSQYDIACYQHHEVNTTPILQQRSSAFSLSSLKPEETANPSQNSDSLIWDDLPLSESLNKFLAVVESEVAVTEIDAKNRKQGMDKSIDKCHKNYSRLSLTPWRNTRALNTSCFSLRSSQAMMKDSGKEALFSNCKSNSSPHIQKESKADKTEAAVSIAGSRSDISEDFLPDTCSSALFTSSKDREAFITQKRTSGVLQQRNEISCRPSTSISDCSDLRSRYFTGCGQKLHSGTKGKLAIQNCSKKYSDASDLHKLENKHRWPKKEDDNFTICRKLTYPLETLCSSPESINTSKEMPYRPSNNNLTPSSSGDHEGSYNASAGLFDYIAKDKDIGTEITKIPQDNLLPLEVPCTENYPINENRGQPSQKPSLQSISPSRYSRPRSQSDSECDFEESQDFVPCSQSTPVAGFHQRIHGLNGASKILPSIYSNHNANYKNRKNSPLTGQYQATSACSKNVKAFRQKPESPFVSSLTQANVFNHCPAAESLGNDVDEWVPPTTKKVFISDILGFRVMGLRKCLDLHYSPDPKELPRKKLIKVTHKTNI
modifications: left off: small tags and cut ends

Experiments:
[1] = system: noxin mRNA; test: Northern blot time course of noxin mRNA induction; format: cell-based, mouse
Description: Total RNA was extracted from different adult mouse tissues and analyzed for noxin mRNA by Northern hybridization. Northern blot analysis was carried out as follows. Total RNA (10 μg) was separated by denaturing formaldehyde-agarose gel electrophoresis and transferred onto a nylon membrane (Hybond-N^+, Amersham). The membrane was pre-hybridized with hybridization buffer (0.05 M sodium phosphate buffer, 5×SSC, 4×Denhardt's solution, 1% SDS, 50% formamide, 0.1 mg/ml salmon sperm DNA, and 0.2 mg/ml yeast tRNA) for 6 h at 42° C. and hybridized with the same buffer containing 100,000 cpm/ml [α-^32P] dCTP-labeled noxin cDNA probe amplified by PCR from pFLAG-noxin. Following hybridization for 20 h at 42° C., the membrane was washed twice with 2×SSC for 5 min at room temperature, twice with 0.2×SSC for 5 min at 65° C. and twice with 1×SSC with 3% glycerol for 5 min at room temperature. The membrane was exposed for 3 days at −70° C. using X-OMAT X-ray film (Kodak).
Noxin was identified as an NO-inducible gene and the time course of its induction by the NO donor SNAP was determined. Noxin mRNA levels as determined by Northern blot started to increase 2 h after the addition of SNAP and reached maximal levels 8 h after the addition (FIG. 6A). The pattern of noxin induction by SNAP was similar to that of a p53-dependent gene mdm2. Results for β-actin are shown as a control.

[2] = system: noxin protein in NIH3T3 cells; test: Subcellular localization of endogenous noxin by immunofluorescence; format: cell-based, mouse; details: antibody against C-terminal region peptide
[3] = system: noxin protein in NIH3T3 cells; test: Western blot of endogenous noxin protein after stress stimuli; format: cell-based, mouse; details: anti-noxin Western blot
Description: Western blot analysis. Cells or tissues were homogenized in the lysis buffer (10 mM Tris-HCl pH 7.5, 1 mM EDTA, 400 mM NaCl, 0.5% NP40, 5 mM NaF, 0.5 mM sodium orthovanadate, 10% glycerol, 1 mM dithiothreitol, 1 mM PMSF, 1 μg/ml aprotinin, 1 μg/ml leupeptin and 1 μg/ml pepstatin) for 20 min on ice. Following centrifugation, the soluble fraction was collected and protein concentration was determined using the BCA assay kit (Pierce). 50 μg of total protein was separated on an 8% SDS-PAGE gel and transferred to Immobilon-P membrane (Millipore Corporation) by semi-dry blotting. The membranes were incubated with anti-noxin antibody (see above) (1:1,000) followed by anti-mouse IgG or anti-rabbit IgG antibody conjugated to horseradish peroxidase (HRP) (1:10,000, Amersham). The HRP signal was detected using a chemi-luminescence detection kit (SuperSignal Femto Dura Extended Duration Substrate, Pierce) and Hyperfilm X-ray film (Amersham Biosciences).
Furthermore, in the SNAP-, cytokines-, γ-irradiation, and adriamycin-treated cells an additional band of 129 kD was evident.

[4] = system: MEFs from wild type and noxin-/- mice; test: BrdU/PI flow cytometry of MEFs released from serum arrest, with SNAP; format: cell-based, mouse
Description: Since noxin can induce cell cycle arrest and, in addition, respond to various types of stress stimuli, including NO, the growth characteristics of MEFs isolated from noxin^−/− animals or their wild type (noxin^+/+) littermates were compared. MEFs from wild type and noxin^−/− mice were arrested with low serum (0.1%) culture medium for 24 h and released by adding 10% serum. Cells were either left untreated or exposed to SNAP. At the time of release, BrdU was added to the culture medium and cells were further incubated for 4, 16, or 22 h (FIG. 17, indicated). Cells were collected, stained with PI and analyzed by flow cytometry for BrdU-positive cells (FIG. 17, X-axis: PI, Y-axis: BrdU) and for cell cycle distributions (FIG. 18, X-axis: PI and Y-axis: number of cells) (Fraction P3=G1, Fraction P4=S, Fraction P5=G2/M and Fraction P6=Sub-G1 populations). […]
The growth of noxin^−/− MEFs under normal conditions (FIG. 17g-i) and after addition of SNAP (FIGS. 17j-l) were similar to that of wild type MEFs (FIG. 17a-c and FIG. 17d-f). However, the fraction of sub-G1 cells was higher in noxin-deficient (noxin^−/−) cells (Fraction P6) at each time point analyzed than in wild type (noxin^+/+) MEFs (13.8, 16.3, and 11.5 vs. 9.7, 5.1, and 3.5%, respectively, FIG. 18 fraction P6).

[5] = system: NIH3T3 cells; test: Cell cycle distribution of pFLAG-noxin transfected cells by flow cytometry; format: cell-based, mouse; details: anti-FLAG staining, DNA content
Description: After transfection with pFLAG-noxin or pcDNA3 vector, cell division was arrested with three different treatments (nocodazole, aphidicolin, or low concentration of serum). Cells were stained with anti-FLAG antibody and FITC-conjugated anti-mouse IgG antibody after permeabilization. Cell cycle distributions of untransfected and transfected cells were analyzed by DAPI staining and flow cytometry.

[6] = system: NIH3T3 cells; test: BrdU incorporation (DNA synthesis) in transfected versus untransfected NIH3T3 cells; format: cell-based, mouse; details: BrdU labeling for 24 h
Description: In addition, constructs coding for cyan fluorescent protein with a nuclear localization signal (CFP-nuc), yellow fluorescent protein fused to actin (YFP-actin), or vector construct alone were used as controls. Cells were then labeled with BrdU for 24 h and analyzed cells in situ by immunocytochemistry for BrdU and noxin (or other listed proteins) (FIG. 11A-C). In the figures, signals from anti-FLAG antibodies are seen in red; anti-BrdU antibodies are green; Hoechst 33342 (blue) was used for nuclear counter-staining. […] Recombinant protein was detected on a Western blot using the anti-FLAG antibody.

[7] = system: p53; test: p53 levels in transfected cells by immunocytochemistry and flow cytometry; format: cell-based
Description: The cells were labeled with […] (BrdU) (10 μM) and incubating for the time periods indicated. The cells were collected from plates by trypsin digestion were suspended in saline and fixed with 70% ethanol. After washing with PBS containing 0.05% BSA, 1×10^6 cells were incubated with FITC-conjugated anti-BrdU antibody (Pharmingen, 1:500) for 1 hr, suspended in PBS-BSA with 5 μg/ml propidium iodide (PI) and 20 μg/ml RNase A, and incubated further for 30 min at room temperature. For the bivariate cell cycle analysis, cells were analyzed using LSRII flow cytometer ([…]). […] Cells were analyzed for PE, FITC, and GFP fluorescence by flow cytometry.
Cells were transfected with pFLAG-noxin- or GFP-expressing plasmids and the levels of p53 were determined using immunocytochemistry and flow cytometry. […] 13a-c: which were stained with anti-FLAG and anti-p53 primary antibodies and ALEXA Fluor 596- and 488-conjugated secondary antibodies, respectively. […] 14a-d: Cells transfected with pFLAG-noxin (upper panels) and pEGFP (taken as control; lower panels) that were stained with anti-FLAG and anti-p53 primary antibodies, and PE- and FITC-conjugated secondary antibodies. Then Noxin-FLAG- or EGFP-negative (left panels) and positive (right panels) cells were analyzed for the amount of p53 protein.

[8] = system: MEFs from p53-deficient mice; test: DNA synthesis in p53-deficient MEFs expressing noxin; format: cell-based, mouse
Description: Noxin action was also analyzed in p53-deficient MEFs.

Molecule | time after addition at which noxin mRNA levels started to increase [1] [h] | time after addition at which noxin mRNA reached maximal levels [1] [h] | localization of endogenous noxin protein after exposure [2] | additional noxin band of 129 kD [3] | levels of the 125 kD noxin polypeptide [3] | decrease of the fraction of dividing cells ([4]; MEFs released from low serum arrest, BrdU) [%] | effect on sub-G1 fraction (Fraction P6) ([4]; noxin+/+ or noxin-/- MEFs) | cell cycle phase of cells expressing the transfected gene [5] | fraction of BrdU-positive cells in transfected cells, % of the value for the untransfected cells [6] [%] | p53 levels in cells that received the gene [7] | suppression of DNA synthesis [8]
CC(=O)NC(C(=O)O)C(C)(C)SN=O (racemic) [SNAP, S-nitroso-N-acetyl-D,L-penicillamine] | 2 | 8 | predominantly nuclear localization | evident | specifically increased | 95.5 | did not noticeably affect | – | – | – | –
B1 | – | – | – | – | – | – | – | arrested in G1 or early S phase | 24 | increased | effective
